{
  "source": "patent US20250213652A1",
  "about": "“COMPOSITIONS AND THEIR USE IN METHODS FOR TREATING INTESTINAL INFLAMMATION” (REVOLO BIOTHERAPEUTICS LIMITED, priority 2022, published 2025)",
  "key": {"RAG2−/− mice": {"tested_on": "RAG2−/− mice", "test": "CD4+CD45RBhigh T cell adoptive transfer murine model of intestinal inflammation", "type": "in vivo", "from_the_text": "In the present study, intestinal inflammation is initiated with syngeneic splenic CD4^+CD45RB^high T cell adoptive transfer into T and B cell deficient recipient mice.^37 The CD4^+CD45RB^high T cell population contains mainly naïve T cells primed for activation that are capable of inducing chronic small bowel and colonic inflammation. This animal model allows the modification of key experimental variables, including both innate and adaptive immune cell populations, to answer biologically relevant questions relating to disease pathogenesis. […]\nFrom Day 21 until the end of the experiment on Day 49, animals are monitored daily for clinical signs of colitis to include: bodyweight loss, loose stools and/or diarrhea. On Day 49, animals are culled, the colon dissected out, and colon weight and length measured. […]\nFrom Day 21 until the end of the experiment, animals are monitored daily for clinical signs of colitis to include bodyweight loss, loose stools and/or diarrhea.\n(§1) At termination, colon from half the animals in each group are transferred in tissue fixative, then processed for paraffin-embedding in a ‘swiss roll’ format. These samples are sectioned and stained with hematoxylin and eosin (H&E) and up to two sections per animal are scored by a qualified histopathologist according to a semi-quantitative scoring system. […]"}, "C57-bl/6 mice": {"tested_on": "C57-bl/6 mice", "test": "Dextran sulphate sodium (DSS)-induced murine model of ulcerative colitis", "type": "in vivo", "details": "5% DSS", "description": "In the present study, the DDS murine model of UC will be used to evaluate the efficacy of BiP analogs such as IRL201805 (SEQ ID NO:1).\nAdult C57-bl/6 mice are randomly allocated to experimental groups and allowed to acclimatize for one week. From Day-2, treatments are administered in accordance with the administration schedule below. On Day 0, drinking water is replaced by a 5% dextran sulphate sodium (DSS) in water (excluding group 1 which remains on normal drinking water throughout). Animals are given ad libitum access to the 5% DSS solution. From Day 0 until the end of the experiment on Day 7, animals are monitored daily for clinical signs of colitis to include: bodyweight loss, loose stools and/or diarrhea and presence of occult or gross blood in the stools. […]\nFrom Day 0 until the end of the experiment, animals are monitored daily for clinical signs of colitis to include bodyweight loss, loose stools and/or diarrhea and presence of blood, occult or gross, in the stools.\nas §1"}, "[1]": {"tested_on": "CD69+/CD39+ regulatory T cells (Tregs)", "test": "Colon punch biopsies from IBD patients, flow cytometry of CD69+/CD39+ Tregs", "type": "cell-based, human", "details": "20 μg/mL, 12-14 hours, inflamed colonic tissue compared to non-inflamed tissue from the same patient", "description": "FIG. 6A-E provides an outline of the procedure used to assess the effects of human primary immune cells ex vivo within inflamed and non-inflamed colon tissue treated with IRL201805.\n(§2) In the present study, punch biopsies (2 mm^2) of inflamed and non-inflamed colon tissues were obtained from each consenting IBD patient with hospital ethical approval, as illustrated in FIG. 6A-E. Tissue biopsies were subsequently incubated for 12-14 hours with or without IRL201805 (20 μg/mL) and assessed for CD69+/CD39+ regulatory T cells (Tregs)."}, "p-STAT5 [2]": {"tested_on": "p-STAT5", "test": "Colon punch biopsies from IBD patients, p-STAT5 by flow cytometry", "type": "cell-based, human", "details": "data not shown", "description": "as §2"}, "CD69 [3]": {"tested_on": "CD69", "test": "Surface expression of CD69 and CD39 on Tregs from PBMCs, flow cytometry", "type": "cell-based, human", "details": "20 μg/mL, 20-72 h at 37° C., PBMCs from two healthy donors", "description": "FIG. 8 depicts the mean fluorescent intensity of surface expression of CD69 and CD39 on Tregs from peripheral blood mononuclear cells (PBMCs) cultured with 20 μg/mL IRL201805 for 20-72 h at 37° C.\nIn the present study, PBMCs were isolated from two healthy donors. PBMCs were then incubated with IRL201805 (20 μg/mL) for 20-72 h at 37° C. Flow cytometry was used to measure mean fluorescent intensity and assess surface expression of CD69 and CD39 on Tregs from the PBMCs."}, "JAK3": {"tested_on": "JAK3", "test": "RNAseq gene transcript levels, JAK3", "type": "cell-based, human", "details": "20 μg/mL, 24 hour post treatment", "description": "(§3) FIG. 9A-B illustrates the effects of 20 µg/mL IRL201805 on JAK-STAT signaling pathway at the transcript and protein level. FIG. 9A provides the RNAseq analysis of gene transcript levels of key signaling genes involved in CD69 activation. FIG. 9B provides the immunoblot of p-STAT5 levels in cell lysates from untreated and IRL1805 treated PBMCs.\n(§4) In the present study, the effects of IRL201805 on JAK-STAT signaling pathway were assessed at the transcript and protein level. PBMCs were isolated from a healthy subject and treated for 24 h with 20 μg/mL IRL201805.\n(§5) RNAseq analysis was used to assess gene transcript levels of key signaling genes involved in CD69 activation."}, "SOCS3": {"tested_on": "SOCS3", "test": "RNAseq gene transcript levels, SOCS3", "type": "cell-based, human", "details": "20 μg/mL, 24 hour post treatment", "description": "as §3, §4, §5"}, "STAT5A": {"tested_on": "STAT5A", "test": "RNAseq gene transcript levels, STAT5A", "type": "cell-based, human", "details": "monocytes from three healthy individuals", "description": "as §3, §4, §5"}, "STAT5B": {"tested_on": "STAT5B", "test": "RNAseq gene transcript levels, STAT5B", "type": "cell-based, human", "details": "monocytes from three healthy individuals", "description": "as §3\nIn the present study, the effects of IRL201805 on JAK-STAT signaling pathway were assessed at the transcript and protein level. […]\nas §5"}, "p-STAT5 [4]": {"tested_on": "p-STAT5", "test": "Immunoblot of p-STAT5 in PBMC cell lysates", "type": "cell-based, human", "details": "20 μg/mL, 24 hours, compared to untreated PBMCs", "description": "as §3, §4\nImmunoblotting of PBMC cell lysates with recombinant anti-STAT5 (phospho Y694) antibody [E208] (ab32364) (Abcam, ab32364) was used to assess the p-STAT5 levels in from untreated and IRL1805 treated PBMCs."}, "PBMCs": {"tested_on": "PBMCs", "test": "p-STAT5 status and FoxP3 in T cell subsets of treated PBMCs (Table 4)", "type": "cell-based", "from_the_text": "In Tregs, CD69 is thought to promote CD39 surface expression, FoxP3 transcription, and STAT5 phosphorylation leading to STAT3 inhibition. The present study assessed the effects of IRL1805 on p-STAT5. […] Treatment of PBMCs with IRL201805 led to changes in p-STAT5 status of CD4/CD8 T cells and increased 3-fold the level of FoxP3 transcription (see Table 4)."}, "galectin-1 (Gal-1)": {"tested_on": "galectin-1 (Gal-1)", "test": "TMT quantitative proteomics of monocyte cell surface, Gal-1", "type": "cell-based", "details": "human monocytes (n=4), 1 hour", "from_the_text": "(§6) FIG. 10B provides a bar graph showing the effects of IRL201805 on CD69 ligands, galectin-1 (Gal-1) and S100A8/A9, as detected by TMT quantitative proteomics.\n(§7) The potential ligands, Gal-1 and S100A8/A9, are known to bind to CD69.43 In order to examine the expression of and influence the ability of T cells to sustain a Treg phenotype, the present study investigated the effects of 1805 on the expression of Gal-1 and S100A8/A9 in APCs (monocytes). Human monocytes isolated from healthy individuals (n=4) were exposed to 1805 for 1 hour at levels of both Gal-1 and S100A8/A9 proteins.\n(§8) The abundance of Gal-1 and S100A8/A9 protein at the cell surface were detected by tandem mass tag (TMT) quantitative proteomics."}, "S100A8/A9": {"tested_on": "S100A8/A9", "test": "TMT quantitative proteomics of monocyte cell surface, S100A8/A9", "type": "cell-based", "details": "human monocytes (n=4), 1 hour", "from_the_text": "as §6, §7, §8"}, "S100A9": {"tested_on": "S100A9", "test": "Mass spec analysis of S100A9 post-translational modification in monocytes", "type": "cell-based", "details": "human monocytes", "from_the_text": "as §6, §7"}, "CD69 [5]": {"tested_on": "CD69", "test": "Surface CD154 and CD69 activation markers on T-lymphocytes from PBMCs", "type": "cell-based, human", "details": "20 μg/mL, 20 hours at 37° C., PBMCs from four healthy donors, p=0.008", "from_the_text": "FIG. 11A-C provides bar graphs showing the effects of IRL201805 on the expression of surface CD154 and CD69 activation markers on T-lymphocytes from PBMCs: Tregs (FIG. 11A); effector T cells (Teffs; FIG. 11B); and CD8 T cells (FIG. 11C). Results are from PBMCs isolated from four healthy donors. Mean±SD shown. P=values represent paired sample t-test. NS=not significant.\nThe present study assessed the effects of 1805 on the expression of surface CD154 and CD69 activation markers on T-lymphocytes from PBMC of Tregs, Teffs, and CD8 T cells. PBMCs isolated from four healthy donors were cultured with or without 20 μg/mL IRL201805 for 20 hours at 37° C."}, "STAT3 phosphorylation": {"tested_on": "STAT3 phosphorylation", "test": "STAT3 phosphorylation in human lymphocytes (previous unpublished data)", "type": "cell-based"}},
  "data": [
    {"substance": "IRL201805: a modified analog of GRP78 (BiP analog, SEQ ID NO:1) being developed for the treatment of autoimmune disease", "values": [
      {"measurement": "clinical signs of colitis (bodyweight loss, loose stools and/or diarrhea)", "setting": "RAG2−/− mice; IV from Day 21, dose TBC", "value": "significant reduction in clinical signs of colitis"},
      {"measurement": "histopathology severity scores", "setting": "RAG2−/− mice; T cell transfer colitis, colon sections H&E, Day 49", "value": "significant reduction in severity scores"},
      {"measurement": "clinical signs of colitis (bodyweight loss, loose stools and/or diarrhea)", "setting": "C57-bl/6 mice; 1 mg/kg IV Day −2, 0, 3, 6", "value": "significant reduction in clinical signs of colitis"},
      {"measurement": "histopathology severity scores", "setting": "C57-bl/6 mice; 1 mg/kg IV, colon sections H&E, Day 7", "value": "significant reduction in severity scores"},
      {"measurement": "increase in double positive CD69+/CD39+ Tregs", "setting": "[1]", "value": 20, "unit": "%"},
      {"measurement": "p-STAT5 in subsets of immune cells by flow cytometry", "setting": "p-STAT5 [2]", "value": "increased p-STAT5"},
      {"measurement": "duration of sustained CD69 expression on CD154- cells", "setting": "CD69 [3]", "value": "at least 72 h"},
      {"measurement": "increase of JAK3 gene transcript level", "setting": "JAK3", "value": "approximately 10 fold"},
      {"measurement": "increase of SOCS3 gene transcript level", "setting": "SOCS3", "value": "approximately 10 fold"},
      {"measurement": "transcript levels of STAT5A", "setting": "STAT5A", "value": "did not affect"},
      {"measurement": "transcript levels of STAT5B", "setting": "STAT5B", "value": "did not affect"},
      {"measurement": "p-STAT5 levels by immunoblot", "setting": "p-STAT5 [4]", "value": "increased levels"},
      {"measurement": "p-STAT5 in subsets of immune cells", "setting": "PBMCs; PBMCs", "value": "increased p-STAT5"},
      {"measurement": "increase of the level of FoxP3 transcription", "setting": "PBMCs; PBMCs, versus untreated", "value": 3, "unit": "fold"},
      {"measurement": "% CD4+ve", "setting": "PBMCs; treated PBMCs", "value": 7.1, "unit": "%"},
      {"measurement": "% CD8+ve", "setting": "PBMCs; treated PBMCs", "value": 3.2, "unit": "%"},
      {"measurement": "% FoxP3 + Tregs", "setting": "PBMCs; treated PBMCs", "value": 0.9, "unit": "%"},
      {"measurement": "CD25hi/CD127lo Tregs", "setting": "PBMCs; treated PBMCs", "value": 3.2},
      {"measurement": "Gal-1 expression on the cell surface", "setting": "galectin-1 (Gal-1)", "value": "not altered"},
      {"measurement": "S100A8/A9 expression on the cell surface", "setting": "S100A8/A9", "value": "not altered"},
      {"measurement": "increase of phosphorylation of S100A9", "setting": "S100A9; 1 hour", "value": 58, "unit": "%"},
      {"measurement": "trimethylation post-translational modifications on threonine 113 on S100A9", "setting": "S100A9; mass spec", "value": "increased trimethylation"},
      {"measurement": "increase of CD69 on the cell surface of Tregs", "setting": "CD69 [5]", "value": 2, "unit": "fold"}
    ]},
    {"substance": "binding immunoglobulin protein [BiP]", "values": [
      {"measurement": "STAT3 phosphorylation", "setting": "STAT3 phosphorylation", "value": "inhibit STAT3 phosphorylation"}
    ]}
  ]
}
